Assay results taken from patent publication US20050148254A1, “Light-activated biocidal polyelectrolytes” (priority 2003, published 2005).

System: Bacillus anthracis spores
Assay type: cell-based, Bacillus anthracis (Sterne)

| SMILES | % killing | Spore colonies | reduction in bacterial survival | reduction of bacterial survival | inhibition of B. anthracis survival | reduction in survival for B. anthracis |
| --- | --- | --- | --- | --- | --- | --- |
| CCCCCCCCCCCC[N+](C)(C)C.[Br-] [DTAB, dodecyltrimethylammonium bromide] | 40% | 84 ± 4 | approximately 40% | approximately 40% | – | – |
| CN(C)c1ccc2nc3ccc(=[N+](C)C)cc-3sc2c1 [MB, methylene blue] | – | – | – | – | no inhibition | 75% |
| O=C1OC2(c3cc(I)c(O)c(I)c3Oc3c2cc(I)c(O)c3I)c2c(Cl)c(Cl)c(Cl)c(Cl)c21 [RBL, Rose Bengal lactone] | – | – | – | – | – | approximately 40% |
